Results: ChEMBL document CHEMBL1201862, “PubChem BioAssay data set” (2004)
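Assay format: 96-well plates, 48-hour exposure. Abbreviation: GI50, concentration required for 50% inhibition of growth.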 Active and inactive are the calls of the source. Rule as the data show it: active = GI50 up to about 1.1 µM and inactive = higher. Non-standard residues stand in square brackets, D forms with d. Residues, ends and D or L forms follow the SMILES beside them. *: point of attachment. Bn2Val = CC(C)[C@@H](C(=O)*)N(Cc1ccccc1)Cc1ccccc1; NMeV = CN[C@H](C(=O)O)C(C)C; X32 = COc1ccc(CN*)c(OC)c1; dNMeA = CN[C@H](C)C(=O)O

How the values were obtained:
Assay in all cases: NCI anticancer screen, dose series, 48 h
BT-549 = system: BT-549
NCI-H522 = system: NCI-H522
HCT-15 = system: HCT-15
MCF7 = system: MCF7
HL-60 = system: HL-60
MOLT-4 = system: MOLT-4
SW-620 = system: SW-620
UACC-257 = system: UACC-257
UACC-62 = system: UACC-62
NCI-H226 = system: NCI-H226
EKVX = system: EKVX
PC-3 = system: PC-3
OVCAR-8 = system: OVCAR-8
SF-539 = system: SF-539
OVCAR-4 = system: OVCAR-4
786-0 = system: 786-0
OVCAR-3 = system: OVCAR-3
NCI-H460 = system: NCI-H460
Malme-3M = system: Malme-3M
A498 = system: A498
IGROV-1 = system: IGROV-1
NCI-H23 = system: NCI-H23
SNB-75 = system: SNB-75
COLO 205 = system: COLO 205
M14 = system: M14
MDA-MB-435 = system: MDA-MB-435
OVCAR-5 = system: OVCAR-5
U-251 = system: U-251
SN12C = system: SN12C
A549 = system: A549
K562 = system: K562
SNB-19 = system: SNB-19
HCC 2998 = system: HCC 2998
CAKI-1 = system: CAKI-1
DU-145 = system: DU-145
SK-MEL-28 = system: SK-MEL-28
SF-268 = system: SF-268
HT-29 = system: HT-29
CCRF-CEM = system: CCRF-CEM
SR = system: SR
HCT-116 = system: HCT-116
T47D = system: T47D
Hs-578T = system: Hs-578T
SK-MEL-2 = system: SK-MEL-2
HOP-92 = system: HOP-92
SF-295 = system: SF-295
MDA-MB-231 = system: MDA-MB-231
MDA-N = system: MDA-N
ACHN = system: ACHN
SK-MEL-5 = system: SK-MEL-5
NCI/ADR-RES = system: NCI/ADR-RES
LOX IMVI = system: LOX IMVI
RXF 393 = system: RXF 393
HOP-62 = system: HOP-62
TK-10 = system: TK-10
RPMI-8226 = system: RPMI-8226
UO-31 = system: UO-31
SK-OV-3 = system: SK-OV-3
KM12 = system: KM12

In the case of CCOC(=O)CCc1c(C)c2ccc(O)cc2oc1=O, the GI50 (BT-549) is reported as > 100 µM (inactive), the GI50 (NCI-H522) is reported as > 100 µM (inactive) and the GI50 (HCT-15) is reported as over 100 µM. The GI50 (MCF7) was > 100 µM (inactive), the GI50 (HL-60) was > 100 µM (inactive) and the GI50 (MOLT-4) was > 100 µM (inactive). The GI50 (SW-620) was > 100 µM (inactive), the GI50 (UACC-257) was > 100 µM (inactive) and the GI50 (UACC-62) was > 100 µM (inactive). For the same molecule, the GI50 (NCI-H226) was > 100 µM (inactive), the GI50 (EKVX) was > 100 µM (inactive) and the GI50 (PC-3) was > 100 µM (inactive). For the same molecule, the GI50 (OVCAR-8) was > 100 µM (inactive), the GI50 (SF-539) was > 100 µM (inactive) and the GI50 (OVCAR-4) was > 100 µM (inactive). For the same molecule, the GI50 (786-0) was > 100 µM (inactive), the GI50 (OVCAR-3) was > 100 µM (inactive) and the GI50 (NCI-H460) was > 100 µM (inactive). The GI50 (Malme-3M) was > 100 µM (inactive), the GI50 (A498) was > 100 µM (inactive) and the GI50 (IGROV-1) was > 100 µM (inactive). The GI50 (NCI-H23) was > 100 µM (inactive), the GI50 (SNB-75) was > 100 µM (inactive) and the GI50 (COLO 205) was > 100 µM (inactive). The GI50 (M14) was > 100 µM (inactive), the GI50 (MDA-MB-435) was > 100 µM (inactive) and the GI50 (OVCAR-5) was > 100 µM (inactive). For the same molecule, the GI50 (U-251) was > 100 µM (inactive), the GI50 (SN12C) was > 100 µM (inactive) and the GI50 (A549) was > 100 µM (inactive). For the same molecule, the GI50 (K562) was > 100 µM (inactive), the GI50 (SNB-19) was > 100 µM (inactive) and the GI50 (HCC 2998) was > 100 µM (inactive). For the same molecule, the GI50 (CAKI-1) was > 100 µM (inactive), the GI50 (DU-145) was > 100 µM (inactive) and the GI50 (SK-MEL-28) was > 100 µM (inactive). The GI50 (SF-268) was > 100 µM (inactive), the GI50 (HT-29) was > 100 µM (inactive) and the GI50 (CCRF-CEM) was > 100 µM (inactive). For the same molecule, the GI50 (SR) was > 100 µM (inactive), the GI50 (HCT-116) was > 100 µM (inactive) and the GI50 (T47D) was > 100 µM (inactive). For the same molecule, the GI50 (Hs-578T) was > 100 µM (inactive), the GI50 (SK-MEL-2) was > 100 µM (inactive) and the GI50 (HOP-92) was > 100 µM (inactive). The GI50 (SF-295) was > 100 µM (inactive), the GI50 (MDA-MB-231) was > 100 µM (inactive) and the GI50 (MDA-N) was > 100 µM (inactive). For the same molecule, the GI50 (ACHN) was > 100 µM (inactive), the GI50 (SK-MEL-5) was > 100 µM (inactive) and the GI50 (NCI/ADR-RES) was > 100 µM (inactive). The GI50 (LOX IMVI) was > 100 µM (inactive), the GI50 (RXF 393) was > 100 µM (inactive) and the GI50 (HOP-62) was > 100 µM (inactive). The GI50 (TK-10) was > 100 µM (inactive) and the GI50 (RPMI-8226) was > 100 µM (inactive).

With COc1ccc(CNC(=O)[C@@H]2CCCN2C(=O)[C@@H](C)N(C)C(=O)[C@H](C(C)C)N(C)C(=O)[C@@H](NC(=O)[C@H](C(C)C)N(Cc2ccccc2)Cc2ccccc2)C(C)C)c(OC)c1 (Bn2Val-V[NMeV][dNMeA]P-X32) the GI50 (BT-549) was 2.56 µM (inactive), the GI50 (NCI-H522) was 3.56 µM (inactive) and the GI50 (HCT-15) was 3.05 µM. The GI50 (MCF7) was 3.19 µM (inactive), the GI50 (HL-60) was 0.0561 µM (active) and the GI50 (SW-620) was 3.5 µM (inactive). The GI50 (UACC-257) was 3.44 µM (inactive), the GI50 (UACC-62) was 4.18 µM (inactive) and the GI50 (NCI-H226) was 5.41 µM (inactive). The GI50 (UO-31) was 3.86 µM (inactive), the GI50 (EKVX) was 2.69 µM (inactive) and the GI50 (PC-3) was 2.9 µM (inactive). The GI50 (OVCAR-8) was 6.41 µM (inactive), the GI50 (SF-539) was 2.44 µM (inactive) and the GI50 (OVCAR-4) was 3.41 µM (inactive). For the same molecule, the GI50 (786-0) was 3.28 µM (inactive), the GI50 (OVCAR-3) was 3.63 µM (inactive) and the GI50 (NCI-H460) was 3.52 µM (inactive). The GI50 (Malme-3M) was 5.12 µM (inactive), the GI50 (A498) was 2.96 µM (inactive) and the GI50 (IGROV-1) was 3.4 µM (inactive). For the same molecule, the GI50 (NCI-H23) was 2.94 µM (inactive), the GI50 (SNB-75) was 1.52 µM (inactive) and the GI50 (COLO 205) was 2.29 µM (inactive). The GI50 (M14) was 2.84 µM (inactive), the GI50 (MDA-MB-435) was 2.61 µM (inactive) and the GI50 (OVCAR-5) was 1.59 µM (inactive). For the same molecule, the GI50 (U-251) was 2.25 µM (inactive), the GI50 (SN12C) was 1.78 µM (inactive) and the GI50 (A549) was 3.77 µM (inactive). For the same molecule, the GI50 (K562) was 0.0706 µM (active), the GI50 (SNB-19) was 3.4 µM (inactive) and the GI50 (HCC 2998) was 2.33 µM (inactive). For the same molecule, the GI50 (SK-OV-3) was 10.7 µM (inactive), the GI50 (CAKI-1) was 4.04 µM (inactive) and the GI50 (DU-145) was 6.15 µM (inactive). For the same molecule, the GI50 (SK-MEL-28) was 3.29 µM (inactive), the GI50 (SF-268) was 3.71 µM (inactive) and the GI50 (HT-29) was 1.74 µM (inactive). The GI50 (SR) was 2.15 µM (inactive), the GI50 (HCT-116) was 3.13 µM (inactive) and the GI50 (T47D) was 10.6 µM (inactive). For the same molecule, the GI50 (Hs-578T) was 7.53 µM (inactive), the GI50 (SK-MEL-2) was 1.77 µM (inactive) and the GI50 (HOP-92) was 2.74 µM (inactive). For the same molecule, the GI50 (SF-295) was 3.34 µM (inactive), the GI50 (MDA-MB-231) was 1.51 µM (inactive) and the GI50 (MDA-N) was 2.35 µM (inactive). For the same molecule, the GI50 (ACHN) was 3.75 µM (inactive), the GI50 (NCI/ADR-RES) was 2.97 µM (inactive) and the GI50 (LOX IMVI) was 2.84 µM (inactive). The GI50 (RXF 393) was 1.85 µM (inactive), the GI50 (HOP-62) was 4.91 µM (inactive) and the GI50 (TK-10) was 4.47 µM (inactive). For the same molecule, the GI50 (KM12) was 2.36 µM (inactive) and the GI50 (RPMI-8226) was 2.67 µM (inactive).
